The record followed here is patent publication US9370569B2 (priority 2014, dated 2016).

This assay concerns the target influenza RNA polymerase (Influenza A virus, UniProt P03431). Kind of assay: Influenza polymerase assay (radiolabeled nucleotide incorporation). Format: biochemical. The conditions noted are these: nucleotide triphosphates in influenza polymerase assay.
For orientation: IC50 means the concentration at which inhibition is half-maximal. On to `Nc1ccn([C@@H]2O[C@@](COP(=O)(O)OP(=O)(O)OP(=O)(O)O)(C(F)F)[C@@H](O)[C@H]2O)c(=O)n1` [TPP-4], for which the IC50 is less than 10 µM.
`Nc1nc2c(ncn2[C@@H]2O[C@@](COP(=O)(O)OP(=O)(O)OP(=O)(O)O)(C(F)F)[C@@H](O)[C@H]2O)c(=O)[nH]1` [TPP-10] had a 50% inhibitory concentration (IC50) of less than 10 µM.
The result for `Nc1ncnc2ncn([C@@H]3O[C@@](COP(=O)(O)OP(=O)(O)OP(=O)(O)O)(C(F)F)[C@@H](O)[C@H]3O)c12` [TPP-9] reads less than 10 µM.
With `Nc1nc(=O)n([C@@H]2O[C@@](COP(=O)(O)OP(=O)(O)OP(=O)(O)O)(C(F)F)[C@@H](O)[C@H]2O)cc1Cl` [TPP-5] the figure was 10 to 100 µM; with `O=c1[nH]c(=O)n([C@@H]2O[C@@](COP(=O)(O)OP(=O)(O)OP(=O)(O)O)(C(F)F)[C@@H](O)[C@H]2O)cc1F` [TPP-3], 10 to 100 µM; with `Nc1ncnc2c1ncn2[C@@H]1O[C@@](COP(=O)(O)OP(=O)(O)OP(=O)(O)O)(C(F)F)[C@@H](O)[C@H]1O` [TPP-8], less than 10 µM.
With `Nc1nc(N)c2ncn([C@@H]3O[C@@](COP(=O)(O)OP(=O)(O)OP(=O)(O)O)(C(F)F)[C@@H](O)[C@H]3O)c2n1` [TPP-7] the figure was greater than 100 µM.
For `O=c1[nH]c(=O)n([C@@H]2O[C@@](COP(=O)(O)OP(=O)(O)OP(=O)(O)O)(C(F)F)[C@@H](O)[C@H]2O)cc1Cl` [TPP-2], the IC50 was 10 to 100 µM.
The molecule `Nc1nc(=O)n([C@@H]2O[C@@](COP(=O)(O)OP(=O)(O)OP(=O)(O)O)(C(F)F)[C@@H](O)[C@H]2O)cc1F` [TPP-6] yielded an IC50 of less than 10 µM.
With `O=c1ccn([C@@H]2O[C@@](COP(=O)(O)OP(=O)(O)OP(=O)(O)O)(C(F)F)[C@@H](O)[C@H]2O)c(=O)[nH]1` [TPP-1] the figure was 10 to 100 µM.
